Measured values as given in patent US9079866B2, “Flap modulators” (JANSSEN PHARMACEUTICA NV, priority 2013, dated 2015).
Structures can show the parent of a compound that is named as a salt. Where two headings read alike, the source gives them in different places.

Experiments:
human FLAP = human FLAP (Homo sapiens (Human), UniProt P20292); test: FLAP binding assay (HTRF format); conditions: HTRF format
How it was run: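 Samples were run in duplicate on each of two plates and the plate results averaged. Read-out is the HTRF signal ratio.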

[1] = system: leukotriene pathway in human whole blood (LTB4 levels); test: Human whole blood assay (A23187-stimulated LTB4); format: cell-based; conditions: Homo sapiens, read-out: LTB4 IC50 1:1
How it was run: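 Blood (heparin) diluted 1:1 RPMI; compound pre-incubation 15 min, 37° Celsius; A23187 7 μg/mL, 30 min, 37° Celsius; plasma LTB4 by commercial kit. IC50 via 4-parameter equation.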

[2] = human FLAP wild type, average of two plates, duplicates
[3] = human whole blood diluted 1:1 in RPMI, A23187-stimulated LTB4
[4] = human whole blood diluted 1:1, A23187-stimulated

human FLAP, sequence (P20292 whole entry): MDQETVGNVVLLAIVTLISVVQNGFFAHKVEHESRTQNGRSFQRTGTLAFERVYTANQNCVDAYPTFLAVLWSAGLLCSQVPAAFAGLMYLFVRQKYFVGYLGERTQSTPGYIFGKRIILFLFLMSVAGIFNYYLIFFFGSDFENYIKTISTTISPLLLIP

Compound	Ki (human FLAP; [2]) [µM]	IC50 [1, 3] [µM]	Ki (human FLAP; wild type FLAP) [µM]	IC50 [1, 4] [µM]
Nc1cnc(-c2ccc(-c3ccccc3SCC(=O)N3CCOCC3)cc2F)cn1 [Example 202, 5-{3-Fluoro-2′-[(2-morpholin-4-yl-2-oxoethyl)sulfanyl]biphenyl-4-yl}pyrazin-2-amine]	0.072	0.172		
Nc1ncc(-c2ccc(-c3ccccc3S(=O)(=O)N[C@H]3CCCC[C@H]3O)cc2F)cn1 (racemic) [Example 259, racemic 4′-(2-Aminopyrimidin-5-yl)-3′-fluoro-N-[(cis)-2-hydroxycyclohexyl]biphenyl-2-sulfonamide]	0.005	0.034		
Nc1ccc(Oc2ccccc2-c2ccc(-c3cnc(N)nc3)c(F)c2)nc1 [Example 621, 5-{2′-[(5-Aminopyridin-2-yl)oxy]-3-fluorobiphenyl-4-yl}pyrimidin-2-amine]			0.005	0.101
CNC(=O)C1CN(S(=O)(=O)c2ccccc2-c2ccc(-c3cnc(N)nc3)c(F)c2)C1 [Example 705, 1-{[4′-(2-Aminopyrimidin-5-yl)-3′-fluorobiphenyl-2-yl]sulfonyl}-N-methylazetidine-3-carboxamide]			0.0869	0.289
Nc1ccc(-c2ccc(-c3ccccc3S(=O)(=O)N3CCCC3)cc2F)cn1 [Example 344, 5-(3-Fluoro-2′-(pyrrolidin-1-ylsulfonyl)-[1,1′-biphenyl]-4-yl)pyridin-2-amine]	0.081	> 10		
CC(C)S(=O)(=O)c1ncccc1-c1ccc(-c2cnc3[nH]ccc3c2)c(F)c1 [Example 826, 5-(2-Fluoro-4-(2-(isopropylsulfonyl)pyridine-3-yl)phenyl)-1H-pyrrolo[2,3-b]pyridine]			0.0007	0.0199
C[C@H]1CNCCN1S(=O)(=O)c1ccccc1-c1ccc(-c2cnc(N)nc2)c(F)c1 [Example 253, 5-(3-Fluoro-2′-{[(2S)-2-methylpiperazin-1-yl]sulfonyl}biphenyl-4-yl)pyrimidin-2-amine]	0.134	0.191		
Nc1ncc(-c2ccc(-c3cccnc3S(=O)(=O)C3CCC3)cc2F)cn1 [Example 805, 5-(4-(2-(Cyclobutylsulfonyl)pyridin-3-yl)-2-fluorophenyl)pyrimidin-2-amine hydrochloride]			0.0297	0.353
Nc1ncc(-c2ccc(-c3ccccc3NS(=O)(=O)N3CCCC3)cc2F)cn1 [Example 309, N-[4′-(2-Aminopyrimidin-5-yl)-3′-fluorobiphenyl-2-yl]pyrrolidine-1-sulfonamide]	0.214	1.79		
Nc1ccc(-c2ccc(-c3ccccc3S(=O)(=O)N3CCC(O)CC3)cc2F)cn1 [Example 360, 1-((4′-(6-Aminopyridin-3-yl)-3′-fluoro-[1,1′-biphenyl]-2-yl)sulfonyl)piperidin-4-ol]	0.022	0.067		
COc1cnc(Oc2ccccc2-c2ccc(-c3cnc(N)nc3)c(F)c2)nc1 [Example 550, 5-{3-Fluoro-2′-[(5-methoxypyrimidin-2-yl)oxy]biphenyl-4-yl}pyrimidin-2-amine]			0.002	0.016
CC(C)[C@@H](CO)NS(=O)(=O)c1ccccc1-c1ccc(-c2cnc(N)nc2)c(F)c1 [Example 271, 4′-(2-Aminopyrimidin-5-yl)-3′-fluoro-N-[(1S)-1-(hydroxymethyl)-2-methylpropyl]biphenyl-2-sulfonamide trifluoroacetic acid salt]	0.051	0.606		
Nc1ncc(-c2ccc(-c3ccccc3S(=O)(=O)N3CCC(F)(F)CC3)cn2)cn1 [Example 682, 5-(5-{2-[(4,4-Difluoropiperidin-1-yl)sulfonyl]phenyl}pyridin-2-yl)pyrimidin-2-amine trifluoroacetic acid salt]			0.224	0.264
CCNS(=O)(=O)c1cc(C(F)(F)F)ccc1-c1ccc(-c2ncc(N)nc2C#N)c(F)c1 [Example 713, 4′-(5-Amino-3-cyanopyrazin-2-yl)-N-ethyl-3′-fluoro-4-(trifluoromethyl)-[1,1′-biphenyl]-2-sulfonamide]			0.0017	0.0534
Nc1cnc(-c2ccc(-c3cccnc3S(=O)(=O)C3CCS(=O)(=O)CC3)cc2F)cn1 [Example 820, 4-((3-(4-(2-Aminopyrazin-5-yl)-3-fluorophenyl)pyridine-2-yl)sulfonyl)tetrahydro-2H-thiopyran 1,1-dioxide]			0.0033	0.0416

Further lines, results first:

Ki (human FLAP; [2]) [µM]	IC50 [1, 3] [µM]	Ki (human FLAP; wild type FLAP) [µM]	IC50 [1, 4] [µM]	Compound
0.035	0.37			Nc1cnc(-c2ccc(-c3ccccc3S(N)(=O)=O)cc2F)cn1 [Example 5, 4′-(5-Aminopyrazin-2-yl)-3′-fluorobiphenyl-2-sulfonamide]
		0.0146	0.042	Nc1cnc(-c2ccc(-c3ccccc3Oc3nccc(C(F)(F)F)n3)cc2F)cn1 [Example 612, 5-(3-Fluoro-2′-{[4-(trifluoromethyl)pyrimidin-2-yl]oxy}biphenyl-4-yl)pyrazin-2-amine]
0.001	0.013			Nc1cnc(-c2ccc(-c3ccccc3S(=O)(=O)N[C@@H]3CCc4ccccc43)cc2F)cn1 [Example 23, (R)-4′-(5-Aminopyrazin-2-yl)-N-[(1R)-2,3-dihydro-1H-inden-1-yl]-3′-fluorobiphenyl-2-sulfonamide]
		0.0019	0.0132	Nc1ccc(Oc2ccccc2-c2ccc(-c3cnc(N)cn3)c(F)c2)nc1 [Example 620, 5-{2′-[(5-Aminopyridin-2-yl)oxy]-3-fluorobiphenyl-4-yl}pyrazin-2-amine]
		0.001	0.025	COc1nc(-c2ccc(-c3ccccc3S(=O)(=O)NC(C)(C)C)cc2F)cnc1N [Example 433, 4′-(5-Amino-6-methoxypyrazin-2-yl)-N-tert-butyl-3′-fluorobiphenyl-2-sulfonamide]
0.025	0.11			CCNS(=O)(=O)c1ccccc1-c1ccc(-c2cnc(N)nc2)c(F)c1 [Example 295, 4′-(2-Aminopyrimidin-5-yl)-N-ethyl-3′-fluorobiphenyl-2-sulfonamide trifluoroacetic acid salt]
0.03	0.676			CC(C)CS(=O)(=O)Nc1ccccc1-c1ccc(-c2cnc(N)cn2)c(F)c1 [Example 37, N-[4′-(5-Aminopyrazin-2-yl)-3′-fluorobiphenyl-2-yl]-2-methylpropane-1-sulfonamide]
0.007	0.058			Nc1cnc(-c2ccc(-c3ccccc3S(=O)(=O)N3CCOCC3)cc2F)cn1 [Example 44, 5-[3-Fluoro-2′-(morpholin-4-ylsulfonyl)biphenyl-4-yl]pyrazin-2-amine]
0.001	0.102			CC(CO)(CO)NS(=O)(=O)c1ccccc1-c1ccc(-c2cnc(N)cn2)c(F)c1 [Example 147, 4′-(5-Aminopyrazin-2-yl)-3′-fluoro-N-[2-hydroxy-1-(hydroxymethyl)-1-methylethyl]biphenyl-2-sulfonamide]
0.008	0.049			Nc1cnc(-c2ccc(-c3ccccc3S(=O)(=O)N3C[C@@H]4C(N)[C@@H]4C3)cc2F)cn1 (stereo partly drawn) [Example 143, endo-3-((4′-(5-Aminopyrazin-2-yl)-3′-fluoro-[1,1′-biphenyl]-2-yl)sulfonyl)-3-azabicyclo[3.1.0]hexan-6-amine]
0.015	0.041			Nc1cnc(-c2ccc(-c3ccccc3S(=O)(=O)N3CCOC(CO)C3)cc2F)cn1 (racemic) [Example 142, racemic (4-{[4′-(5-Aminopyrazin-2-yl)-3′-fluorobiphenyl-2-yl]sulfonyl}morpholin-2-yl)methanol]
		0.0053	0.061	Nc1cnc(-c2ccc(-c3ccccc3-c3cncc(N)n3)cc2F)cn1 [Example 842, 5-[2′-(6-Aminopyrazin-2-yl)-3-fluorobiphenyl-4-yl]pyrazin-2-amine]
0.017	0.205			CS(=O)(=O)c1cc(C(F)(F)F)ccc1-c1ccc(-c2cnc(N)cn2)c(F)c1 [Example 207, 5-[3-Fluoro-2′-(methylsulfonyl)-4′-(trifluoromethyl)biphenyl-4-yl]pyrazin-2-amine]
0.018	0.879			Cc1ncc(CNS(=O)(=O)c2ccccc2-c2ccc(-c3cnc(N)cn3)c(F)c2)c(N)n1 [Example 165, N-[(4-Amino-2-methylpyrimidin-5-yl)methyl]-4′-(5-aminopyrazin-2-yl)-3′-fluorobiphenyl-2-sulfonamide]
0.039	0.25			CC(C)S(=O)(=O)c1ccccc1-c1ccc(-c2cnc(N)cn2)c(F)c1 [Example 199, 5-{3-Fluoro-2′-[(1-methylethyl)sulfonyl]biphenyl-4-yl}pyrazin-2-amine]
		0.035	1.18	COc1cc(-c2ccccc2S(=O)(=O)NC(C)(C)C)ccc1-c1cnc(N)cn1 [Example 570, 4′-(5-Aminopyrazin-2-yl)-N-tert-butyl-3′-methoxybiphenyl-2-sulfonamide]
0.035	0.176			NC(=O)CSc1ccccc1-c1ccc(-c2cnc(N)cn2)c(F)c1 [Example 200, 2-{[4′-(5-Aminopyrazin-2-yl)-3′-fluorobiphenyl-2-yl]sulfanyl}acetamide]
		0.0326	0.359	CC(C)(O)Cn1cc(-c2ccccc2-c2ccc(-c3cnc(N)cn3)c(F)c2)cn1 [Example 851, 1-{4-[4′-(5-Aminopyrazin-2-yl)-3′-fluorobiphenyl-2-yl]-1H-pyrazol-1-yl}-2-methylpropan-2-ol]
		0.003	0.144	CC(C)(C)NS(=O)(=O)c1ccccc1-c1ccc(-c2cnc3[nH]cnc3n2)c(F)c1 [Example 447, N-tert-Butyl-3′-fluoro-4′-(1H-imidazo[4,5-b]pyrazin-5-yl)biphenyl-2-sulfonamide]
